Measured values taken from patent publication US4863925A, “Cyclohexanedione derivative for hepatic disorders and a process for producing the same” (Nihon Nohyaku Co., Ltd., priority 1986, dated 1989).

Key:
[1] = test system: hepatic disorder caused by carbon tetrachloride; assay: Effect of suppressing hepatic disorder caused by carbon tetrachloride (Test Example 1); format: in vivo, mice (dd-strain, male); set-up: key to Liver injury index: 0 = healthy, 2 = slight, 4 = evident injury, 6 = serious injury; settings: 30 mg/kg p.o., 6 h before CCl4 0.05 ml/kg p.o., 24 h after CCl4, mean of five mice; for Liver injury index: 0 healthy, 2 slightly affected, 4 evidently observed injury, 6 serious injury; for P-GPT (plasma glutamic pyruvic transaminase activity): Reitman-Frankel, 2,000 or higher calculated as 2,000
Experimental: Effect of suppressing hepatic disorder caused by carbon tetrachloride. […] The animals were sacrificed 24 hours after the administration of carbon tetrachloride, and the extent of liver injury was examined. On the other hand, blood was collected from the animal at the time of the sacrifice, and centrifuged to obtain plasma. The plasma glutamic pyruvic transminase (GPT) activity was determined according to the method of Reitman-Frankel. The activity was expressed in terms of Karmen Units (K.U.). The conditions of the liver were expressed in terms of liver injury index as follows. |Liver injury index | Condition of liver |0 Healthy liver |2 Slightly affected |4 Evidently observed injury |6 Serious injury Mice were used in groups of five of test were represented by the mean value. When the GPT activity was 2,000 units or higher, or further determination was made, the activity was calculated as 2,000 units for reasons of convenience.

[2] = acute oral toxicity (LD50); settings: in vivo, male rat
Experimental: For example, LD50 value (acute oral toxicity to male rat) of the compound No. 55 is more than 1,000 mg/kg.

Structure (SMILES)	Liver injury index [1]	P-GPT (plasma glutamic pyruvic transaminase activity) [1] [K.U.]	LD50 [2] [mg/kg]
COc1ccc(C2CC(=O)C(=C3SC4C(S3)N(C)CCN4C)C(=O)C2)cc1 (centres unmarked) [compound 55]	0.3	107	> 1000
CCN1CCN(CC)C2SC(=C3C(=O)CCCC3=O)SC21 (centres unmarked) [Compound No. 2]	0.4	15	–
